Where “and” joins values, the source holds several entries; their conditions need not be identical. Equal entries are not always repeated.
Assay: Particle size analysis (wet analysis), Malvern Mastersizer 3000
Format: physicochemical
Settings: starting material before micronisation
Protocol: The pump speed was set to 3000 rpm. […] The dispersed particles were added to the dispersion unit to reach an obscuration of 5-15%. […] Six replicates were performed per measurement.

[1] = listed as unmicronised glycopyrrolate

Row | D10 [1] [μm] | D50 [1] [μm] | D90 [1] [μm] | Molecule | D10 | D50 | D90
1 |  |  |  | magnesium stearate | 2.8 μm and 2.06 μm | 8.8 μm and 6.57 μm | 27.4 μm and 19.9 μm
2 | 1.09 | 2.90 | 10.4 | C[N+]1(C)CCC(OC(=O)C(O)(c2ccccc2)C2CCCC2)C1 (stereo not drawn) [Unmicronised glycopyrrolate, glycopyrrolate] | 2.89 μm | 16.0 μm | 49.0 μm
